This is an account of results in patent publication US20230279025A1, “KRAS G12D INHIBITORS” (Mirati Therapeutics, Inc., priority 2020, published 2023).

Structures can show the parent of a compound that is named as a salt.

This experiment has as its target KRas G12D (Homo sapiens (Human), UniProt P01116, G12D). Nature of the experiment: KRas G12D Binding Assay (TR-FRET displacement of Cy5 labelled tracer). To be noted: GDP-loaded KRAS G12D (amino acids 1:169), 60 minute incubation at 22° C. How it is done:
After a 60 minute incubation at 22° C., the reaction was measured using a PerkinElmer EnVision multimode plate reader via TR-FRET dual wavelength detection, and the percent of control (POC) calculated using a ratiometric emission factor. […] The POC values were fit to a 4-parameter logistic curve and the IC50 value was determined as the concentration where the curve crosses 50 POC.
ND stands for “not determined.”
(In TR-FRET formats the signal depends on donor and acceptor labels being close together.)

Chain of KRas G12D (P01116 other isoform, or with tags, fused parts or gaps G12D): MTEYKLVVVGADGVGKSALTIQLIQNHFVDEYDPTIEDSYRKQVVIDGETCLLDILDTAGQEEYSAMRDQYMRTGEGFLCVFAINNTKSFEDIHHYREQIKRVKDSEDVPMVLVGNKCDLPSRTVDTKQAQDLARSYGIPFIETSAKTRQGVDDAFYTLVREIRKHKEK

What is called IC50 is the midpoint of a concentration-inhibition curve. `CC#Cc1cccc2cccc(-c3ncc4c(N5C[C@H]6CC[C@@H](C5)N6)nc(OCC56CCCN5CCC6)nc4c3F)c12` [Example 195, 4-((1R,5S)-3,8-diazabicyclo[3.2.1]octan-3-yl)-8-fluoro-7-(8-(prop-1-yn-1-yl)naphthalen-1-yl)-2-((tetrahydro-1H-pyrrolizin-7a(5H)-yl)methoxy)pyrido[4,3-d]pyrimidine] gave a half-inhibitory concentration (IC50) of 20.7 nM.
The figure for `Fc1c(-c2cccc3c2OC(F)(F)O3)ncc2c(N3C[C@H]4CC[C@@H](C3)N4)nc(OCC34CCCN3CCC4)nc12` [Example 196, 4-((1R,5S)-3,8-diazabicyclo[3.2.1]octan-3-yl)-7-(2,2-difluorobenzo[d][1,3]dioxol-4-yl)-8-fluoro-2-((tetrahydro-1H-pyrrolizin-7a(5H)-yl)methoxy)pyrido[4,3-d]pyrimidine] is 467 nM; for `Fc1c(-c2cccc(C(F)(F)F)c2C(F)(F)F)ncc2c(N3C[C@H]4CC[C@@H](C3)N4)nc(OCC34CCCN3CCC4)nc12` [Example 197, 4-((1R,5S)-3,8-diazabicyclo[3.2.1]octan-3-yl)-7-(2,3-bis(trifluoromethyl)phenyl)-8-fluoro-2-((tetrahydro-1H-pyrrolizin-7a(5H)-yl)methoxy)pyrido[4,3-d]pyrimidine] it is 99.9 nM.
Regarding `N#Cc1cccc2cccc(-c3ncc4c(N5C[C@H]6CC[C@@H](C5)N6)nc(OCC56CCCN5CCC6)nc4c3F)c12` [Example 198, 8-(4-((1R,5S)-3,8-diazabicyclo[3.2.1]octan-3-yl)-8-fluoro-2-((tetrahydro-1H-pyrrolizin-7a(5H)-yl)methoxy)pyrido[4,3-d]pyrimidin-7-yl)-1-naphthonitrile], the IC50 is 20.3 nM.
`CSc1cccc2cccc(-c3ncc4c(N5C[C@H]6CC[C@@H](C5)N6)nc(OCC56CCCN5CCC6)nc4c3F)c12` [Example 199, 4-((1R,5S)-3,8-diazabicyclo[3.2.1]octan-3-yl)-8-fluoro-7-(8-(methylthio)naphthalen-1-yl)-2-((tetrahydro-1H-pyrrolizin-7a(5H)-yl)methoxy)pyrido[4,3-d]pyrimidine] came in with a half-inhibitory concentration (IC50) of 2 nM.
Molecule `Fc1c(-c2cccc3cccc(Cl)c23)ncc2c(N3C[C@H]4CC[C@@H](C3)N4)nc(OCC34CCCN3CCOC4)nc12` (stereo partly drawn) [Example 200, 8a-(((4-((1R,5S)-3,8-diazabicyclo[3.2.1]octan-3-yl)-7-(8-chloronaphthalen-1-yl)-8-fluoropyrido[4,3-d]pyrimidin-2-yl)oxy)methyl)hexahydro-1H-pyrrolo[2,1-c][1,4]oxazine] returned a concentration for half-maximal inhibition (IC50) of 230 nM.
As to `C=Cc1cccc2cccc(-c3ncc4c(N5C[C@H]6CC[C@@H](C5)N6)nc(OC[C@@H]5CCCN5C)nc4c3F)c12` [Example 201, 4-((1R,5S)-3,8-diazabicyclo[3.2.1]octan-3-yl)-8-fluoro-2-(((S)-1-methylpyrrolidin-2-yl)methoxy)-7-(8-vinyInaphthalen-1-yl)pyrido[4,3-d]pyrimidine], the concentration for half-maximal inhibition (IC50) amounted to 70.2 nM.
As for `COCCO[C@@H]1C[C@@H](COc2nc(N3C[C@H]4CC[C@@H](C3)N4)c3cnc(-c4cccc5cccc(Cl)c45)c(F)c3n2)N(C)C1` [Example 202, 4-((1R,5S)-3,8-diazabicyclo[3.2.1]octan-3-yl)-7-(8-chloronaphthalen-1-yl)-8-fluoro-2-(((2S,4R)-4-(2-methoxyethoxy)-1-methylpyrrolidin-2-yl)methoxy)pyrido[4,3-d]pyrimidine], the IC50 worked out at 94 nM.
For the molecule `Fc1c(-c2cncc3cccc(Cl)c23)ncc2c(N3C[C@H]4CC[C@@H](C3)N4)nc(OC[C@]34CCCN3C[C@@H](F)C4)nc12` [Example 203, 4-((1R,5S)-3,8-diazabicyclo[3.2.1]octan-3-yl)-7-(5-chloroisoquinolin-4-yl)-8-fluoro-2-(((2S,7aR)-2-fluorotetrahydro-1H-pyrrolizin-7a(5H)-yl)methoxy)pyrido[4,3-d]pyrimidine], the half-maximal inhibitory concentration (IC50) was 28.1 nM.
In the case of `C#Cc1cccc2cncc(-c3ncc4c(N5C[C@H]6CC[C@@H](C5)N6)nc(OC[C@]56CCCN5C[C@@H](F)C6)nc4c3F)c12` [Example 204, 4-((1R,5S)-3,8-diazabicyclo[3.2.1]octan-3-yl)-7-(5-ethynylisoquinolin-4-yl)-8-fluoro-2-(((2S,7aR)-2-fluorotetrahydro-1H-pyrrolizin-7a(5H)-yl)methoxy)pyrido[4,3-d]pyrimidine], the 50% inhibitory concentration (IC50) is 4.4 nM.
Molecule `C#Cc1cccc2cccc(-c3ncc4c(N5C[C@H]6CC[C@@H](C5)N6)nc(OC[C@]56CCCN5C[C@@H](F)C6)nc4c3F)c12` [Example 205, 4-((1R,5S)-3,8-diazabicyclo[3.2.1]octan-3-yl)-7-(8-ethynylnaphthalen-1-yl)-8-fluoro-2-(((2S,7aR)-2-fluorotetrahydro-1H-pyrrolizin-7a(5H)-yl)methoxy)pyrido[4,3-d]pyrimidine] had a half-inhibitory concentration (IC50) of 1.2 nM.
In turn, `C#Cc1cccc2cccc(-c3ncc4c(N5C[C@H]6CC[C@@H](C5)N6)nc(OC[C@@H]5CCCN5C)nc4c3F)c12` [Example 206, 4-((1R,5S)-3,8-diazabicyclo[3.2.1]octan-3-yl)-7-(8-ethynylnaphthalen-1-yl)-8-fluoro-2-(((S)-1-methylpyrrolidin-2-yl)methoxy)pyrido[4,3-d]pyrimidine] displayed a 50% inhibitory concentration (IC50) of 5.1 nM.
Molecule `Cc1ccc2c(-c3ncc4c(N5C[C@H]6CC[C@@H](C5)N6)nc(OC[C@@H]5CCCN5C)nc4c3F)cccc2c1` [Example 207, 4-((1R,5S)-3,8-diazabicyclo[3.2.1]octan-3-yl)-8-fluoro-7-(6-methylnaphthalen-1-yl)-2-(((S)-1-methylpyrrolidin-2-yl)methoxy)pyrido[4,3-d]pyrimidine] yielded a half-maximal inhibitory concentration (IC50) of 4910 nM.
On to `CN1C[C@H](NC(=O)c2cccc(S(=O)(=O)F)c2)C[C@H]1COc1nc(N2C[C@H]3CC[C@@H](C2)N3)c2cnc(-c3cccc4cccc(Cl)c34)c(F)c2n1` [Example 211, 3-(((3R,5S)-5-(((4-((1R,5S)-3,8-diazabicyclo[3.2.1]octan-3-yl)-7-(8-chloronaphthalen-1-yl)-8-fluoropyrido[4,3-d]pyrimidin-2-yl)oxy)methyl)-1-methylpyrrolidin-3-yl)carbamoyl)benzenesulfonyl fluoride tris(2,2,2-trifluoroacetate)], for which the half-maximal inhibitory concentration (IC50) came to 212 nM.
Under `O=C(NCCOc1nc(N2C[C@H]3CC[C@@H](C2)N3)c2cnc(-c3cc(O)cc4ccccc34)c(F)c2n1)c1ccc(S(=O)(=O)F)cc1` [Example 212, 4-((2-((4-((1R,5S)-3,8-diazabicyclo[3.2.1]octan-3-yl)-8-fluoro-7-(3-hydroxynaphthalen-1-yl)pyrido[^4,3-d]pyrimidin-2-yl)oxy)ethyl)carbamoyl)benzenesulfonyl fluoride bis(2,2,2-trifluoroacetate)] stands 1220 nM.
`OCC12CCCN1CC(Oc1nc(N3C[C@H]4CC[C@@H](C3)N4)c3cnc(-c4cccc5cccc(Cl)c45)c(F)c3n1)C2` (stereo partly drawn) [Example 222, (2-((4-((1R,5S)-3,8-diazabicyclo[3.2.1]octan-3-yl)-7-(8-chloronaphthalen-1-yl)-8-fluoropyrido[4,3-d]pyrimidin-2-yl)oxy)tetrahydro-1H-pyrrolizin-7a(5H)-yl)methanol bis-TFA salt] had a 50% inhibitory concentration (IC50) of 1130 nM.
`O[C@H]1CN2CCC[C@@]2(COc2nc(N3CC4CCC(C3)N4)c3cnc(-c4cccc5cccc(Cl)c45)c(F)c3n2)C1` [Example 223, 7a-(((4-((1R,5S)-3,8-diazabicyclo[3.2.1]octan-3-yl)-7-(8-chloronaphthalen-1-yl)-8-fluoropyrido[4,3-d]pyrimidin-2-yl)oxy)methyl)hexahydro-1H-pyrrolizin-2-ol bis-2,2,2-trifluoroacetate] gave an IC50 of 7.1 nM.
As to `CO[C@H]1CN2CCC[C@]2(COc2nc(N3CC4CCC(C3)N4)c3cnc(-c4cccc5cccc(Cl)c45)c(F)c3n2)C1` [Example 225, 4-((1R,5S)-3,8-diazabicyclo[3.2.1]octan-3-yl)-7-(8-chloronaphthalen-1-yl)-8-fluoro-2-((2-methoxytetrahydro-1H-pyrrolizin-7a(5H)-yl)methoxy)pyrido[4,3-d]pyrimidine bis-2,2,2-trifluoroacetate], the half-maximal inhibitory concentration (IC50) is 9.2 nM.
`Fc1c(-c2cccc3cccc(Cl)c23)ncc2c(N3CC4CCC(C3)N4)nc(OCC34CCCN3C[C@H](F)C4)nc12` (stereo partly drawn) [Example 226, 4-((1R,5S)-3,8-diazabicyclo[3.2.1]octan-3-yl)-7-(8-chloronaphthalen-1-yl)-8-fluoro-2-((2-fluorotetrahydro-1H-pyrrolizin-7a(5H)-yl)methoxy)pyrido[4,3-d]pyrimidine bis-hydrochloride] showed an IC50 of 25.9 nM.
Under `CC1(C)CN2CCCC2(COc2nc(N3CC4CCC(C3)N4)c3cnc(-c4cccc5cccc(Cl)c45)c(F)c3n2)C1` [Example 228, 4-((1R,5S)-3,8-diazabicyclo[3.2.1]octan-3-yl)-7-(8-chloronaphthalen-1-yl)-2-((2,2-dimethyltetrahydro-1H-pyrrolizin-7a(5H)-yl)methoxy)-8-fluoropyrido[4,3-d]pyrimidine bis-2,2,2-trifluoroacetate] stands 87.7 nM; under `Fc1c(-c2ccccc2OC(F)(F)F)ncc2c(N3C[C@H]4CC[C@@H](C3)N4)nc(OCC34CCCN3CCC4)nc12` [Example 229, 4-((1R,5S)-3,8-diazabicyclo[3.2.1]octan-3-yl)-8-fluoro-2-((tetrahydro-1H-pyrrolizin-7a(5H)-yl)methoxy)-7-(2-(trifluoromethoxy)phenyl)pyrido[4,3-d]pyrimidine bis-hydrochloride], 121 nM; under `Fc1c(-c2cccc(Cl)c2OC(F)(F)F)ncc2c(N3CC4CCC(C3)N4)nc(OCC34CCCN3CCC4)nc12` [Example 230, 4-((1R,5S)-3,8-diazabicyclo[3.2.1]octan-3-yl)-7-(3-chloro-2-(trifluoromethoxy)phenyl)-8-fluoro-2-((tetrahydro-1H-pyrrolizin-7a(5H)-yl)methoxy)pyrido[4,3-d]pyrimidine bis(2,2,2-trifluoroacetate], 1430 nM.
